For orientation: EC50 means the midpoint of the concentration-response curve. Usually EC90 stands for the concentration at which the effect reaches the 90% level. In general, CC50 refers to the concentration at which the toxic effect on the cells reaches its halfway point. Broadly, the inhibition is the drop in the measured response relative to a control, in per cent.

Data on eight molecules can be found in paper PMC2848589, “Raltegravir Is a Potent Inhibitor of XMRV, a Virus Implicated in Prostate Cancer and Chronic Fatigue Syndrome” (PLoS ONE, 2010).

Series [1] deals with XMRV. The series is described as follows: XMRV replication in MCF-7 cells (viral release by RT activity in supernatant). The format is cell-based. Particulars: for EC50 / EC90: MCF7, 144 h; for EC50: read-out: XMRV in MCF-7 cells EC50; for EC90: read-out: XMRV in MCF-7 cells EC90; for therapeutic index (TI, the ratio of CC50/EC50): XMRV, MCF-7 cells.
Series [2] can be described thus: Cytotoxicity in MCF-7 cells (MTT / CellTiter 96 AQueous One). The format is cell-based, human. Particulars: human. As for the experimental part:
(§1) We tested a total of 45 compounds belonging to different classes of HIV-1 inhibitors, and a few inhibitors of viruses other than retroviruses, for their ability to inhibit XMRV replication in cultured cells. LNCaP and MCF-7 cells were chosen for their ability to support robust in vitro replication of XMRV. […] To determine if a reduction in viral release might be due to toxicity of the compound and not due to specific antiretroviral activity, cellular morphology was monitored every 24 h by microscopic examination, and an MTT [3-(4,5-dimethylthiazol-2-yl)-2,5-diphenyltetrazolium bromide] colorimetric assay was used to measure potential cytotoxicity produced by the compounds. Supernatants were collected every 24 h and assayed for viral release by measuring RT activity. […] For comparison purposes, all compounds evaluated in these studies were also tested against HIV-1LAI in primary human lymphocytes.
(§2) Each well was carefully monitored for signs of cellular toxicity due to the inhibitors by microscopic observation every 24 h. In addition, cell viability was measured using the CellTiter 96 AQueous One Solution cell proliferation assay according to the manufacturer (Promega, Madison, Wis). Viral release from the cells was assayed by measuring RT activity in the supernatant. For this, supernatant from each well was collected every 24 h and frozen at −20°C until it was analyzed by RT assay for viral release as described previously. In brief, oligo(dT)·poly(rA) primer-template assays were performed in the presence of radiolabeled [α-^32P]dTTP and Mn^2+. After incubating the viral supernatants with the RT reaction mix for 1 h at 37°C, samples were spotted onto DE81 DEAE cellulose paper (Whatman) and unincorporated label washed away with 2× SSC (1× SSC = 0.15 M NaCl and 0.015 M sodium citrate). […] Inhibition of viral release as measured on day 6 after inoculation was averaged over 3–5 experiments and plotted. The antiviral EC50 and cytotoxic concentrations (CC50,) was determined from the concentration–response curve using the median effect method. HIV-1 replication assays were performed as described previously using peripheral blood mononuclear cells (PBMC) obtained from the American Red Cross, Atlanta, GA, that were stimulated with phytohemagglutinin (PHA) for 72 hr.

For another series, the system named is HIV-1LAI. The series is described as follows: HIV-1 replication in PHA-stimulated peripheral blood mononuclear cells. Format: cell-based. Particulars: Human immunodeficiency virus 1, PBMC; for EC50: read-out: HIV-1 in PBM cells EC50; for EC90: read-out: HIV-1 in PBM cells EC90. As for the experimental part:
as §1, §2

The test system of series [3] is XMRV. Briefly: XMRV replication in LNCaP cells (viral release by RT activity in supernatant). Format: cell-based. The settings on record: for EC50: read-out: EC50 in LNCaP cells; for EC90: read-out: EC90 in LNCaP cells; for inhibition at 100 µM: read-out: inhibition of XMRV replication. The procedure: as §1
Viral release from XMRV-infected LNCaP cells in the presence of increasing concentrations of (A) ZDV (B) TDF (C) RAL and (D) L-000870812, was determined by measuring RT activity in the supernatants. […] Cell viability was checked by microscopy, quantified by the MTT assay, and represented by shaded bars. Data for each compound were derived from an average of at least three independent experiments, each performed in duplicate.
293T cells (ATCC, CRL-11268) were transfected with pXMRV1, an infectious clone of XMRV [2]. Virus released in the supernatant was harvested and titrated by inoculating MCF-7 cells, a breast cancer cell line (ATCC, HTB-22) at 70% confluence, with a series of ten-fold dilutions of XMRV in serum-free medium, followed 36–48 hrs later by fixation of cells in paraformaldehyde and processing for immunofluorescence using a rabbit antiserum developed against inactivated XMRV [2]. […] Virus was diluted in serum-free medium and used to inoculate cells at a multiplicity of infection (MOI) of approximately 3, in the presence of various antiviral compounds as described below. LNCaP, a prostate cancer cell line (ATCC, CRL-1740) and MCF-7 cells were grown to about 50% confluence in DMEM containing 10% heat inactivated fetal bovine serum, […]. Cells were washed twice with Dulbecco's phosphate buffered saline (DPBS, Gibco), and incubated with the viral inoculum for 90 min at 37°C in the presence of 95% air and 5% CO2, cells were washed twice with DPBS, detached with Trypsin-EDTA (0.25% Trypsin; Cellgro), and counted. One thousand cells were added to each well of a 96-well plate, along with an equal volume of medium containing the retroviral inhibitor at 2-fold the desired concentration. […] For controls, wells containing water or DMSO at appropriate concentrations were used.
Each well was carefully monitored for signs of cellular toxicity due to the inhibitors by microscopic observation every 24 h. In addition, cell viability was measured using the CellTiter 96 AQueous One Solution cell proliferation assay according to the manufacturer (Promega, Madison, Wis). Viral release from the cells was assayed by measuring RT activity in the supernatant. For this, supernatant from each well was collected every 24 h and frozen at −20°C until it was analyzed by RT assay for viral release as described previously. In brief, oligo(dT)·poly(rA) primer-template assays were performed in the presence of radiolabeled [α-^32P]dTTP and Mn^2+. After incubating the viral supernatants with the RT reaction mix for 1 h at 37°C, samples were spotted onto DE81 DEAE cellulose paper (Whatman) and unincorporated label washed away with 2× SSC (1× SSC = 0.15 M NaCl and 0.015 M sodium citrate).

Series [4] can be described thus: Cytotoxicity in PBM cells. The format is cell-based. The settings on record: human, read-out: HIV-1 in PBM cells CC50. As for the experimental part:
as §2

Another series relates to MCF-7 cells. Briefly: Cytotoxicity in MCF-7 cells (MTT / CellTiter 96 AQueous One). Format: cell-based, human. As for the experimental part:
as §1, §2

Setting [5] is: peripheral blood mononuclear (PBM) cells.
The mark [6] stands for this setting: XMRV-infected MCF-7 cells, RT activity in supernatant, day 6.
The mark [7] stands for this setting: MCF-7 cells, read-out: XMRV in MCF-7 cells CC50.

The structures appear in SMILES notation. Where a name gives a salt, the structure may show the parent alone. A value given as a limit tells only on which side of the number the result lay.

With `Cc1cn([C@H]2C[C@H](N=[N+]=[N-])[C@@H](CO)O2)c(=O)[nH]c1=O` [3'-Azido-3'-deoxythymidine (ZDV), 3'-Azido-3'-deoxythymidine], the EC50 with XMRV [1] is 110 nM; with HIV-1LAI, 5.2 nM; in the series on XMRV [3] (LNCaP), 140 nM. Besides, the results for the EC90 in the series with XMRV [1], in the series on HIV-1LAI and in the series with XMRV [3] (LNCaP) were 7300 nM, 36 nM and 1100 nM, respectively. The “therapeutic index (TI, the ratio of CC50/EC50)” value in the series with XMRV [1] came out at 591. For the same molecule, the CC50 in series [2] is 65000 nM; in series [4] (setting [5]) it was above 100000 nM.
With `Cc1cn([C@H]2C[C@H](F)[C@@H](CO)O2)c(=O)[nH]c1=O` [3'-Fluoro-3'-deoxythymidine (FLT), 3'-Fluoro-3'-deoxythymidine], the results for the EC50 with XMRV [1] and in the series on HIV-1LAI were 7900 nM and 0.18 nM, respectively. In addition, the EC90 is above 100000 nM with XMRV [1] and 5 nM with HIV-1LAI. Besides, the CC50 in series [2] is 75800 nM; in series [4] (setting [5]), 13800 nM. Moreover, the inhibition at 100 µM in the series on XMRV [3] (LNCaP) was above 70%.
Take `Nc1nc2c(ncn2C2COC(CO)O2)c(=O)[nH]1` [9-(β-D-1,3-Dioxolan-4-yl)guanine (DXG), 9-(β-D-1,3-Dioxolan-4-yl)guanine]: in the series on XMRV [1] (tested up to 100 µM, Figure 1), the “activity against XMRV (in words)” value was “essentially inactive”. This molecule also yielded a CC50 in the series on MCF-7 cells above 100000 nM.
As to `Nc1nc2c(ncn2[C@H]2C=C[C@@H](CO)C2)c(=O)[nH]1` [(-)-carbovir (CBV), (-)-carbovir], the CC50 in the series with MCF-7 cells is above 100000 nM. Further, in the series on XMRV [3] (100 µM, see Table S1 (cell line not given)), the “inhibition of XMRV replication” value is given as “greater than 70%”.
`Nc1ccn([C@H]2C=C[C@@H](CO)O2)c(=O)n1` [D4C] registered a CC50 with MCF-7 cells above 100000 nM.
For `Cc1nnc(C(=O)NC(C)(C)c2nc(C(=O)NCc3ccc(F)cc3)c(O)c(=O)n2C)o1` [Raltegravir (RAL, MK-0518), Raltegravir], the results for the EC50 in the series with XMRV [1] (setting [6]), in the series with HIV-1LAI and in the series with XMRV [3] (XMRV-infected LNCaP cells) were 5 nM, 1.4 nM and 30 nM, respectively. For the same molecule, the concentration for an effect of 90% (EC90) in the series on XMRV [1] (setting [6]) is 3500 nM; in the series on HIV-1LAI, 8.9 nM; in the series with XMRV [3] (XMRV-infected LNCaP cells), 460 nM. Besides, the “therapeutic index (TI, the ratio of CC50/EC50)” value in the series with XMRV [1] was 18,460. Besides, the CC50 in series [2] (setting [7]) was 92300 nM; in series [4], above 100000 nM.
As to `Cc1cn([C@H]2C=C[C@@H](CO)O2)c(=O)[nH]c1=O` [Stavudine (D4T), Stavudine], the concentration for a half-maximal effect (EC50) came out at 75600 nM in the series on XMRV [1] and 90 nM in the series on HIV-1LAI. Besides, the values for the EC90 with XMRV [1] and in the series with HIV-1LAI were above 100000 nM and 490 nM, respectively. In addition, the CC50 in series [2] (setting [7]) and in series [4] (setting [5]) was above 100000 nM each time. In the series on XMRV [3] (LNCaP), the inhibition at 100 µM was above 70%.
Turning to `CC(C)OC(=O)OCOP(=O)(CO[C@H](C)Cn1cnc2c(N)ncnc21)OCOC(=O)OC(C)C` [Tenofovir disoproxil fumarate (TDF), Tenofovir disoproxil fumarate], the EC50 in the series on XMRV [1] is 240 nM; in the series with HIV-1LAI, 16 nM; in the series on XMRV [3] (LNCaP) it was 900 nM. Moreover, the EC90 with XMRV [1] turned out to be 15300 nM; with HIV-1LAI, 180 nM; in the series on XMRV [3] (LNCaP), 4200 nM. Moreover, in the series with XMRV [1], the “therapeutic index (TI, the ratio of CC50/EC50)” value worked out at 218. Moreover, the CC50 in series [2] is 52200 nM; in series [4] (setting [5]), 17800 nM.
